In DBAASP:
Converted amounts (≈) assume the structure as drawn. One block for each molecule: values may come before it.

How the values were obtained:
Assay in all cases: ≥ marks a high value that may be exact or a test limit, other limits are often not marked, values filed in µg/mL are converted to µM
[1] = tested on: Candida glabrata ATCC 90525
[2] = tested on: Candida tropicalis ATCC 20240
[3] = tested on: Candida albicans ATCC 2048
[4] = tested on: Candida parapsilosis ATCC 20224
[5] = tested on: Candida krusei ATCC 6258
[6] = tested on: Staphylococcus epidermidis
[7] = tested on: Escherichia coli UTI89
[8] = tested on: Escherichia coli K12 MG1655
[9] = tested on: Salmonella enterica subsp. enterica serovar Typhimurium ATCC 14028
[10] = tested on: Candida albicans ATCC 90028
[11] = tested on: Acinetobacter baumannii
[12] = tested on: Escherichia coli ATCC 25922
[13] = tested on: Klebsiella pneumoniae ATCC BAA-2146
[14] = tested on: Cryptococcus neoformans ATCC 208821
[15] = tested on: Klebsiella pneumoniae
[16] = tested on: Acinetobacter baumannii ATCC 19606
[17] = tested on: Pseudomonas aeruginosa
[18] = tested on: Bacillus subtilis ATCC 6051
[19] = tested on: Klebsiella pneumoniae ATCC 13883
[20] = tested on: Pseudomonas aeruginosa ATCC 27853
[21] = tested on: Staphylococcus aureus ATCC 43300
[22] = tested on: Klebsiella pneumoniae ATCC 700603
[23] = tested on: Malassezia furfur KCTC 7744
[24] = tested on: Acinetobacter baumannii ATCC BAA-1605
[25] = tested on: Bacillus subtilis KCTC 3068
[26] = tested on: Trichosporon beigelii KCTC 7707
[27] = tested on: Enterococcus faecium ATCC 51559
[28] = tested on: Enterococcus faecium KCCM 12118
[29] = tested on: Candida parapsilosis ATCC 22019
[30] = tested on: Enterococcus faecalis KCCM 29212
[31] = tested on: Enterococcus faecalis KCCM 11814
[32] = tested on: Salmonella typhimurium KCTC 1926
[33] = tested on: Staphylococcus epidermidis KCTC 1917
[34] = tested on: Escherichia coli KCTC 1682
[35] = tested on: Acinetobacter baumannii KCCM 40203
[36] = tested on: Pseudomonas aeruginosa CCARM 2180
[37] = tested on: Staphylococcus aureus ATCC 27660
[38] = tested on: Escherichia coli D31
[39] = tested on: Pseudomonas aeruginosa ATCC 10145
[40] = tested on: Staphylococcus aureus 1D00101
[41] = tested on: Micrococcus luteus 1D00051
[42] = tested on: Vibrio vulnificus 1H00066
[43] = tested on: Staphylococcus aureus ATCC 29213
[44] = tested on: Salmonella typhimurium CMCC 50013
[45] = tested on: Candida albicans ATCC 18804
[46] = tested on: Escherichia coli MG1655
[47] = tested on: Staphylococcus aureus ATCC 33592

SMILES: CC[C@H](C)[C@H](NC(=O)[C@H](CCCCN)NC(=O)[C@@H](N)CCCCN)C(=O)NCC(=O)N[C@@H](CCC(N)=O)C(=O)N[C@@H](CCCCN)C(=O)N[C@H](C(=O)N[C@@H](CCCCN)C(=O)N[C@@H](CC(N)=O)C(=O)N[C@@H](Cc1ccccc1)C(=O)N[C@@H](Cc1ccccc1)C(=O)N[C@@H](CCC(N)=O)C(=O)N[C@@H](CCCCN)C(=O)N[C@@H](CC(C)C)C(=O)O)[C@@H](C)CC [KKIGQKIKNFFQKL]
MIC [6]: ≥ 50 µM | MIC [7]: ≥ 50 µM | MIC [8]: ≥ 50 µM | MIC [9]: > 50 µM

SMILES: CC[C@H](C)[C@H](NC(=O)[C@H](Cc1c[nH]c2ccccc12)NC(=O)[C@H](CC(C)C)NC(=O)[C@@H](N)CC(C)C)C(=O)N[C@@H](C)C(=O)N[C@@H](CC(C)C)C(=O)N[C@@H](CCCN=C(N)N)C(=O)N[C@@H](CCCCN)C(=O)N[C@@H](CCCCN)C(N)=O [LLWIALRKK]
MIC [23]: 0.614 µM (≈ 0.699 µg/mL) | MIC [10]: 0.614 µM (≈ 0.699 µg/mL) | MIC [24]: ≥ 80 µM | MIC [25]: 3.51 µM (≈ 4 µg/mL) | MIC [26]: 1.32 µM (≈ 1.5 µg/mL) | MIC [27]: 1.75 µM (≈ 2 µg/mL) | MIC [28]: 7.01 µM (≈ 7.99 µg/mL) | MIC [29]: 0.614 µM (≈ 0.699 µg/mL) | MIC [30]: 7.01 µM (≈ 7.99 µg/mL) | MIC [31]: ≥ 80 µM | MIC [32]: 3.51 µM (≈ 4 µg/mL) | MIC [33]: 3.51 µM (≈ 4 µg/mL) | MIC [34]: 3.51 µM (≈ 4 µg/mL) | MIC [35]: ≥ 80 µM | MIC [36]: ≥ 80 µM

SMILES: CC[C@H](C)[C@H](NC(C)=O)C(=O)N[C@@H](CCCCN)C(=O)N[C@@H](CCCN=C(N)N)C(=O)N[C@@H](CC(C)C)C(=O)N[C@@H](CC(N)=O)C(=O)N[C@@H](CO)C(=O)N[C@@H](Cc1c[nH]c2ccccc12)C(=O)N[C@@H](CC(C)C)C(=O)N[C@@H](CCCN=C(N)N)C(=O)N[C@@H](CCCCN)C(N)=O [IKRLNSWLRK]
MIC [45]: ≥ 128 µM | MIC [46]: ≥ 64 µM | MIC [47]: ≥ 128 µM

Now from value to molecule:

MIC [1]: ≥ 260 µM | MIC [2]: ≥ 75 µM | MIC [3]: ≥ 280 µM | MIC [4]: ≥ 270 µM | MIC [5]: ≥ 270 µM
SMILES: CC(C)C[C@H](NC(=O)[C@H](C)N)C(=O)N[C@@H](CCC(N)=O)C(=O)NCC(=O)N[C@@H](C)C(=O)N[C@@H](CCCCN)C(=O)N[C@@H](CCC(=O)O)C(=O)N[C@@H](CCCN=C(N)N)C(=O)N[C@@H](C)C(=O)N[C@@H](Cc1cnc[nH]1)C(=O)N[C@@H](CCC(N)=O)C(=O)N[C@@H](CCC(N)=O)C(=O)O [ALQGAKERAHQQ]

MIC [10]: 7.4 µM (≈ 16 µg/mL) | MIC [11]: 0.925 µM (≈ 2 µg/mL) | MIC [12]: 0.231 µM (≈ 0.499 µg/mL) | MIC [13]: 3.7 µM (≈ 7.99 µg/mL) | MIC [14]: 1.85 µM (≈ 3.99 µg/mL) | MIC [15]: > 7.4 µM | MIC [16]: 0.462 µM (≈ 0.998 µg/mL) | MIC [17]: 7.4 µM (≈ 16 µg/mL) | MIC [18]: 0.231 µM (≈ 0.499 µg/mL) | MIC [19]: 0.925 µM (≈ 2 µg/mL) | MIC [20]: 3.7 µM (≈ 7.99 µg/mL) | MIC [21]: 7.4 µM (≈ 16 µg/mL) | MIC [22]: 3.7 µM (≈ 7.99 µg/mL)
SMILES: CC[C@H](C)[C@@H]1NC(=O)CNC(=O)[C@H](CCCN=C(N)N)NC(=O)CNC(=O)[C@@H]2CSSC[C@H](NC1=O)C(=O)N[C@@H](Cc1ccc(O)cc1)C(=O)N[C@@H](CCCN=C(N)N)C(=O)N[C@@H](CCCN=C(N)N)C(=O)N[C@H](C(=O)N[C@@H](CCCN=C(N)N)C(=O)O)CSSC[C@H](NC(=O)[C@H](Cc1c[nH]c3ccccc13)NC(=O)[C@@H](N)CCCCN)C(=O)N[C@@H](Cc1ccccc1)C(=O)N[C@@H](CCCN=C(N)N)C(=O)N[C@@H](C(C)C)C(=O)N2 [KWCFRVCGRGICYRRCR]

MIC [37]: 0.97 µM (≈ 2.44 µg/mL) | MIC [38]: 0.94 µM (≈ 2.37 µg/mL) | MIC [39]: 1.88 µM (≈ 4.73 µg/mL) | MIC [22]: 1.88 µM (≈ 4.73 µg/mL)
SMILES: CC[C@H](C)[C@H](NC(=O)CNC(=O)[C@H](CCCCN)NC(=O)[C@H](Cc1c[nH]c2ccccc12)NC(=O)[C@H](CC(C)C)NC(=O)[C@H](CCCCN)NC(=O)[C@H](CCCCN)NC(=O)[C@H](C)NC(=O)[C@H](CCCCN)NC(=O)[C@H](CCCCN)NC(=O)[C@H](Cc1ccccc1)NC(=O)CNC(=O)[C@H](CCCCN)NC(=O)[C@H](C)NC(=O)[C@H](Cc1ccccc1)NC(=O)[C@@H](NC(=O)[C@H](CCCCN)NC(=O)[C@@H](NC(=O)[C@H](CC(C)C)NC(=O)[C@H](CCCCN)NC(=O)[C@@H](N)CCCCN)[C@@H](C)CC)C(C)C)C(=O)NCC(=O)O [KKLIKVFAKGFKKAKKLWKGIG]

MIC [40]: 4 µM (≈ 8.65 µg/mL) | MIC [41]: 9 µM (≈ 19.5 µg/mL) | MIC [42]: ≥ 80 µM
SMILES: CC[C@H](C)[C@H](NC(=O)[C@H](CCCN=C(N)N)NC(=O)[C@@H](NC(=O)[C@H](CCSC)NC(=O)[C@@H]1CCCN1C(=O)CNC(=O)[C@H](Cc1cnc[nH]1)NC(=O)[C@@H](NC(=O)[C@H](CCCCN)NC(=O)[C@H](CCCN=C(N)N)NC(=O)[C@H](CCCN=C(N)N)NC(=O)[C@H](CCCN=C(N)N)NC(=O)[C@H](CS)NC(=O)[C@@H](N)CCCCN)C(C)C)[C@@H](C)CC)C(=O)N[C@@H](CCCN=C(N)N)C(=O)N[C@@H](CCCCN)C(=O)N[C@@H](CCCCN)C(=O)O [KCRRRKVHGPMIRIRKK]

MIC [43]: 11 µM (≈ 22.8 µg/mL) | MIC [25]: 5.9 µM (≈ 12.2 µg/mL) | MIC [12]: 10.3 µM (≈ 21.4 µg/mL) | MIC [44]: 20.8 µM (≈ 43.1 µg/mL)
SMILES: CC[C@H](C)[C@H](NC(=O)[C@@H](N)CO)C(=O)N[C@@H](CO)C(=O)N[C@@H](CC(C)C)C(=O)N[C@@H](CC(C)C)C(=O)N[C@@H](Cc1ccc(O)cc1)C(=O)NCC(=O)N[C@@H](CCCN=C(N)N)C(=O)N[C@@H](CCCCN)C(=O)N[C@@H](CCCCN)C(=O)N[C@@H](CCCN=C(N)N)C(=O)N[C@@H](CCCN=C(N)N)C(=O)N[C@@H](CCC(N)=O)C(=O)N[C@@H](CCCN=C(N)N)C(=O)N[C@@H](CCCN=C(N)N)C(=O)N[C@@H](CCCN=C(N)N)C(=O)O [SISLLYGRKKRRQRRR]
